Measured values: the supplement of paper PMC10307832

Experiments:
Experiment in all cases: relative viability (nuclei count vs DMSO), 5 days (fraction); higher = more cells survive
COR-L23 = tested on: COR-L23
Procedure, shortened: (§1)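 Lung cancer cell lines in 1536-well plates got either a single drug or a fixed anchor-drug dose together with five library-drug doses (not always all listed) in √10 steps, by pin tool, on the day after seeding. Nuclei were counted after 5 days, and relative viability is the treated-to-vehicle ratio of nuclei counts. Values are medians of duplicate plates.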

NCI-H358 = tested on: NCI-H358
Procedure, shortened: as §1

BEN = tested on: BEN
Procedure, shortened: as §1

NCI-H838 = tested on: NCI-H838
Procedure, shortened: as §1

NCI-H2342 = tested on: NCI-H2342
Procedure, shortened: as §1

LOU-NH91 = tested on: LOU-NH91
Procedure, shortened: as §1

SK-LU-1 = tested on: SK-LU-1
Procedure, shortened: as §1

HCC-366 = tested on: HCC-366
Procedure, shortened: as §1

NCI-H1793 = tested on: NCI-H1793
Procedure, shortened: as §1

NCI-H441 = tested on: NCI-H441
Procedure, shortened: as §1

NCI-H2023 = tested on: NCI-H2023
Procedure, shortened: as §1

NCI-H2085 = tested on: NCI-H2085
Procedure, shortened: as §1

CAL-12T = tested on: CAL-12T
Procedure, shortened: as §1

NCI-H1975 = tested on: NCI-H1975
Procedure, shortened: as §1

NCI-H1651 = tested on: NCI-H1651
Procedure, shortened: as §1

NCI-H1355 = tested on: NCI-H1355
Procedure, shortened: as §1

NCI-H1734 = tested on: NCI-H1734
Procedure, shortened: as §1

NCI-H460 = tested on: NCI-H460
Procedure, shortened: as §1

NCI-H1650 = tested on: NCI-H1650
Procedure, shortened: as §1

LU99A = tested on: LU99A
Procedure, shortened: as §1

NCI-H1437 = tested on: NCI-H1437
Procedure, shortened: as §1

Cc1sc2c(c1C)C(c1ccc(Cl)cc1)=N[C@@H](CC(=O)OC(C)(C)C)c1nnc(C)n1-2 [JQ1] + Cc1cc(Nc2cc(N3CCN(C)CC3)nc(Sc3ccc(NC(=O)C4CC4)cc3)n2)n[nH]1 [Tozasertib] (partner 0.1 µM)
relative viability (COR-L23; first compound 0.04 µM): 0.217 | relative viability (COR-L23; first compound 0.1265 µM): 0.148 | relative viability (COR-L23; first compound 0.4 µM): 0.154 | relative viability (COR-L23; first compound 1.265 µM): 0.11 | relative viability (COR-L23; first compound 4 µM): 0.109 | relative viability (NCI-H358; first compound 0.04 µM): 0.102 | relative viability (NCI-H358; first compound 0.1265 µM): 0.102 | relative viability (NCI-H358; first compound 0.4 µM): 0.124 | relative viability (NCI-H358; first compound 1.265 µM): 0.107 | relative viability (NCI-H358; first compound 4 µM): 0.0861 | relative viability (BEN; first compound 0.04 µM): 0.57 | relative viability (BEN; first compound 0.1265 µM): 0.535 | relative viability (BEN; first compound 0.4 µM): 0.5 | relative viability (BEN; first compound 1.265 µM): 0.365 | relative viability (BEN; first compound 4 µM): 0.28 | relative viability (NCI-H838; first compound 0.04 µM): 0.26 | relative viability (NCI-H838; first compound 0.1265 µM): 0.221 | relative viability (NCI-H838; first compound 0.4 µM): 0.263 | relative viability (NCI-H838; first compound 1.265 µM): 0.179 | relative viability (NCI-H838; first compound 4 µM): 0.134 | relative viability (NCI-H2342; first compound 0.04 µM): 0.65 | relative viability (NCI-H2342; first compound 0.1265 µM): 0.436 | relative viability (NCI-H2342; first compound 0.4 µM): 0.46 | relative viability (NCI-H2342; first compound 1.265 µM): 0.45 | relative viability (NCI-H2342; first compound 4 µM): 0.336 | relative viability (LOU-NH91; first compound 0.04 µM): 0.653 | relative viability (LOU-NH91; first compound 0.1265 µM): 0.453 | relative viability (LOU-NH91; first compound 0.4 µM): 0.255 | relative viability (LOU-NH91; first compound 1.265 µM): 0.359 | relative viability (LOU-NH91; first compound 4 µM): 0.299 | relative viability (SK-LU-1; first compound 0.04 µM): 0.282 | relative viability (SK-LU-1; first compound 0.1265 µM): 0.27 | relative viability (SK-LU-1; first compound 0.4 µM): 0.249 | relative viability (SK-LU-1; first compound 1.265 µM): 0.0708 | relative viability (SK-LU-1; first compound 4 µM): 0.0741 | relative viability (HCC-366; first compound 0.04 µM): 0.112 | relative viability (HCC-366; first compound 0.4 µM): 0.0922 | relative viability (HCC-366; first compound 1.265 µM): 0.0515 | relative viability (HCC-366; first compound 4 µM): 0.0708 | relative viability (NCI-H1793; first compound 0.04 µM): 0.355 | relative viability (NCI-H1793; first compound 0.1265 µM): 0.316 | relative viability (NCI-H1793; first compound 0.4 µM): 0.282 | relative viability (NCI-H1793; first compound 1.265 µM): 0.185 | relative viability (NCI-H1793; first compound 4 µM): 0.226 | relative viability (NCI-H441; first compound 0.04 µM): 0.629 | relative viability (NCI-H441; first compound 0.1265 µM): 0.66 | relative viability (NCI-H441; first compound 0.4 µM): 0.631 | relative viability (NCI-H441; first compound 1.265 µM): 0.417 | relative viability (NCI-H441; first compound 4 µM): 0.219 | relative viability (NCI-H2023; first compound 0.04 µM): 0.354 | relative viability (NCI-H2023; first compound 0.1265 µM): 0.308 | relative viability (NCI-H2023; first compound 0.4 µM): 0.186 | relative viability (NCI-H2023; first compound 1.265 µM): 0.1 | relative viability (NCI-H2023; first compound 4 µM): 0.0918 | relative viability (NCI-H2085; first compound 0.04 µM): 0.761 | relative viability (NCI-H2085; first compound 0.1265 µM): 0.727 | relative viability (NCI-H2085; first compound 0.4 µM): 0.63 | relative viability (NCI-H2085; first compound 1.265 µM): 0.414 | relative viability (NCI-H2085; first compound 4 µM): 0.328 | relative viability (CAL-12T; first compound 0.04 µM): 0.274 | relative viability (CAL-12T; first compound 0.1265 µM): 0.238 | relative viability (CAL-12T; first compound 0.4 µM): 0.24 | relative viability (CAL-12T; first compound 1.265 µM): 0.132 | relative viability (CAL-12T; first compound 4 µM): 0.122 | relative viability (NCI-H1975; first compound 0.04 µM): 0.75 | relative viability (NCI-H1975; first compound 0.1265 µM): 0.515 | relative viability (NCI-H1975; first compound 0.4 µM): 0.487 | relative viability (NCI-H1975; first compound 1.265 µM): 0.214 | relative viability (NCI-H1975; first compound 4 µM): 0.171 | relative viability (NCI-H1651; first compound 0.04 µM): 0.69 | relative viability (NCI-H1651; first compound 0.1265 µM): 0.683 | relative viability (NCI-H1651; first compound 0.4 µM): 0.672 | relative viability (NCI-H1651; first compound 1.265 µM): 0.31 | relative viability (NCI-H1651; first compound 4 µM): 0.24 | relative viability (NCI-H1355; first compound 0.04 µM): 0.522 | relative viability (NCI-H1355; first compound 0.1265 µM): 0.387 | relative viability (NCI-H1355; first compound 0.4 µM): 0.324 | relative viability (NCI-H1355; first compound 1.265 µM): 0.23 | relative viability (NCI-H1355; first compound 4 µM): 0.202 | relative viability (NCI-H1734; first compound 0.04 µM): 0.259 | relative viability (NCI-H1734; first compound 0.1265 µM): 0.209 | relative viability (NCI-H1734; first compound 0.4 µM): 0.215 | relative viability (NCI-H1734; first compound 1.265 µM): 0.204 | relative viability (NCI-H1734; first compound 4 µM): 0.212 | relative viability (NCI-H460; first compound 0.04 µM): 0.402 | relative viability (NCI-H460; first compound 0.4 µM): 0.119 | relative viability (NCI-H460; first compound 1.265 µM): 0.0684 | relative viability (NCI-H460; first compound 4 µM): 0.0339 | relative viability (NCI-H1650; first compound 0.04 µM): 0.355 | relative viability (NCI-H1650; first compound 0.1265 µM): 0.289 | relative viability (NCI-H1650; first compound 0.4 µM): 0.284 | relative viability (NCI-H1650; first compound 1.265 µM): 0.124 | relative viability (NCI-H1650; first compound 4 µM): 0.135 | relative viability (LU99A; first compound 0.04 µM): 0.277 | relative viability (LU99A; first compound 0.1265 µM): 0.304 | relative viability (LU99A; first compound 0.4 µM): 0.237 | relative viability (LU99A; first compound 1.265 µM): 0.188 | relative viability (LU99A; first compound 4 µM): 0.159 | relative viability (NCI-H1437; first compound 0.04 µM): 0.421 | relative viability (NCI-H1437; first compound 0.1265 µM): 0.357 | relative viability (NCI-H1437; first compound 0.4 µM): 0.357 | relative viability (NCI-H1437; first compound 1.265 µM): 0.224 | relative viability (NCI-H1437; first compound 4 µM): 0.174
